Results published in ChEMBL document CHEMBL5375972, “Discovery of Novel 2,3-Dihydro-1H-indene-5-sulfonamide NLRP3 Inflammasome Inhibitors Targeting Colon as a Potential Therapy for Colitis” (J Med Chem, 2023).
Calls of active or inactive are those of the source. The rule behind the calls is not given here.

Legend:
[1] = Drug distribution in Sprague-Dawley rat plasma at 1 mg/kg,iv measured for 0.5 to 2 hrs by HPLC-MS/MS analysis; format: ADME, organism-based; settings: in vivo, time 0.5-2 hrs
[2] = Drug distribution in Sprague-Dawley rat small intestine at 1 mg/kg,iv measured for 0.5 to 2 hrs by HPLC-MS/MS analysis; format: ADME, organism-based; settings: in vivo, time 0.5-2 hrs
[3] = Acute toxicity in Kunming mouse model assessed as clonic convulsion at 1000 mg/kg,IG administration for 7 days; format: organism-based; settings: in vivo, po, 168 h, time 7 day
[4] = Cmax in Sprague-Dawley rat at 1 mg/kg,iv measured after 24 hrs by HPLC-MS/MS analysis; format: ADME, organism-based; parameters: dose 1 mg/kg, time 24 hrs, route iv; settings: in vivo
[5] = Cytotoxicity against mouse J774.A1 cells incubated for 24 hrs by resazurin reagent based assay; format: toxicity, cell-based
[6] = Clearance in Sprague-Dawley rat at 1 mg/kg,iv measured after 24 hrs by HPLC-MS/MS analysis; format: ADME, organism-based; settings: in vivo
Mus musculus [7] = experiment: Anti-inflammatory activity in DSS-induced ulcerative colitis C57BL/6 mouse model assessed as decrease in IL-1beta p17 protein expression in colon at 10 mg/kg,ip administrated for 9 days by Western blotting analysis; format: functional, organism-based; settings: time 9.0 day
[8] = Stability of compound in rat liver measured for 48 hrs; format: ADME, tissue-based
J774.A1 [9] = experiment: Inhibition of NF-kappaB pathway in mouse J774.A1 cells assessed as inhibition of LPS-induced TNF-alpha secretion at 0.1 to 30 uM pretreated for 1hr followed by LPS addition for 6 hrs by ELISA; format: cell-based; settings: dose 0.1-30 µM, time 7.0 hrs
[10] = Subacute toxicity in C57BL/6 mouse assessed as change in liver weight at 10 mg/kg,ip administrated for 14 days; format: organism-based; settings: in vivo, 336 h, time 14 day
[11] = target: T1, NACHT, LRR and PYD domains-containing protein 3 (Homo sapiens, UniProt Q96P20); experiment: Binding affinity to human NLRP3 assessed as equilibrium dissociation constant by surface plasmon resonance assay
T1 sequence (Q96P20 whole entry, the tested form may be a part): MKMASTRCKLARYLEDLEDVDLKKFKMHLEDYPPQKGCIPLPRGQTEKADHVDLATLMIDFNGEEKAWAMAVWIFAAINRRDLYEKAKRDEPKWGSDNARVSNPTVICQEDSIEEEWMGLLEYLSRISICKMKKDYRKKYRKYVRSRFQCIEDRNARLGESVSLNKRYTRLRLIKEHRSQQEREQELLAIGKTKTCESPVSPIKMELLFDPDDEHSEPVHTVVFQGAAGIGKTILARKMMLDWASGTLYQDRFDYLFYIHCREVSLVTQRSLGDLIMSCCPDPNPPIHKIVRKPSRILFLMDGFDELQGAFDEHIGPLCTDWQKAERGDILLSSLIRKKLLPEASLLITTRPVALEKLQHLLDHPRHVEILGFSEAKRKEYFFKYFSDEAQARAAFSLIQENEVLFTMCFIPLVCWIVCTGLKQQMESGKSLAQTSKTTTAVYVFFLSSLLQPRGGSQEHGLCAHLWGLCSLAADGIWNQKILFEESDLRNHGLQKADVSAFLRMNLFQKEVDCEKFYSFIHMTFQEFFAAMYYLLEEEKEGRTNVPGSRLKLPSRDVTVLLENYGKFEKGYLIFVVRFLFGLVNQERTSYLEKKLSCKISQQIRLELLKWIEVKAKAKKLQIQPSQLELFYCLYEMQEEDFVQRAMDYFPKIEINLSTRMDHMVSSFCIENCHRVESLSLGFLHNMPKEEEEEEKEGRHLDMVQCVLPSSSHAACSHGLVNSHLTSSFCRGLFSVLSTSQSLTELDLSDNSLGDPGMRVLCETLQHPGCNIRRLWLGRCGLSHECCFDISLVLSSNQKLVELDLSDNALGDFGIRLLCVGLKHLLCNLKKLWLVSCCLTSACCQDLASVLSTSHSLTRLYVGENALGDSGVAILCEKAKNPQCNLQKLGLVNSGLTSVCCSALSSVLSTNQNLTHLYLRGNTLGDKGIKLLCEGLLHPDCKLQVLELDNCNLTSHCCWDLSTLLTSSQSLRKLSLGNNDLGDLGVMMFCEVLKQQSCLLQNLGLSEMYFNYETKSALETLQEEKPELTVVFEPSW

Mus musculus [12] = experiment: Anti-inflammatory activity in C57BL/6 mouse assessed as inhibition of LPS-induced IL-1beta secretion at 10 mg/kg,ip administrated for 1 hr followed by LPS stimulation for 2.5 hrs by ELISA analysis; format: functional, organism-based
[13] = Acute toxicity in Kunming mouse model assessed as lethargy at 2000 mg/kg,IG administration for 7 days; format: organism-based; settings: in vivo, po, 168 h, time 7 day
[14] = AUC (0-infinity) in Sprague-Dawley rat at 1 mg/kg,iv measured after 24 hrs by HPLC-MS/MS analysis; format: ADME, organism-based; parameters: time 24 hrs, dose 1 mg/kg, route iv; settings: in vivo
[15] = Subacute toxicity in C57BL/6 mouse assessed as change in heart weight at 10 mg/kg,ip administrated for 14 days; format: organism-based; settings: in vivo, 336 h, time 14 day
[16] = Subacute toxicity in C57BL/6 mouse assessed as body weight gain at 100 mg/kg,ip administrated for 14 days; format: organism-based; settings: in vivo, 336 h, time 14 day
[17] = Subacute toxicity in C57BL/6 mouse assessed as kidney histological changes at 10 mg/kg,ip administrated for 14 days; format: organism-based; settings: in vivo, 336 h, time 14 day
J774.A1 [18] = experiment: […] of pyroptosis in mouse J774.A1 cells assessed as decrease in LDH release at 0.1 to 30 uM stimulated with LPS for 4.5 hs followed by incubation with compound for 30 mins and ATP addition for 30 mins by microplate reader assay; format: functional, cell-based; settings: dose 0.1-30 µM, time 1.0 hrs
[19] = Subacute toxicity in C57BL/6 mouse assessed as colon histological changes at 100 mg/kg,ip administrated for 14 days; format: organism-based; settings: in vivo, 336 h, time 14 day
[20] = Drug distribution in Sprague-Dawley rat brain at 1 mg/kg,iv measured for 0.5 to 2 hrs by HPLC-MS/MS analysis; format: ADME, organism-based; settings: in vivo, time 0.5-2 hrs
[21] = Half life in Sprague-Dawley rat at 1 mg/kg,iv measured after 24 hrs by HPLC-MS/MS analysis; format: ADME, organism-based; settings: in vivo
[22] = target: NLR family CARD domain-containing protein 4 (Mus musculus) (UniProt Q3UP24); experiment: Inhibition of NLRC4 inflammasome in mouse J774.A1 cells assessed as inhibition of LPS/flagellin-induced IL-1 beta secretion at 10 uM pretreated with LPS and compound for 1 hr followed by flagellin addition measured after 6 hrs by ELISA; format: cell-based; settings: time 7.0 hrs
Sequence of NLR family CARD domain-containing protein 4 (Mus musculus) (Q3UP24 whole entry, the tested form may be a part): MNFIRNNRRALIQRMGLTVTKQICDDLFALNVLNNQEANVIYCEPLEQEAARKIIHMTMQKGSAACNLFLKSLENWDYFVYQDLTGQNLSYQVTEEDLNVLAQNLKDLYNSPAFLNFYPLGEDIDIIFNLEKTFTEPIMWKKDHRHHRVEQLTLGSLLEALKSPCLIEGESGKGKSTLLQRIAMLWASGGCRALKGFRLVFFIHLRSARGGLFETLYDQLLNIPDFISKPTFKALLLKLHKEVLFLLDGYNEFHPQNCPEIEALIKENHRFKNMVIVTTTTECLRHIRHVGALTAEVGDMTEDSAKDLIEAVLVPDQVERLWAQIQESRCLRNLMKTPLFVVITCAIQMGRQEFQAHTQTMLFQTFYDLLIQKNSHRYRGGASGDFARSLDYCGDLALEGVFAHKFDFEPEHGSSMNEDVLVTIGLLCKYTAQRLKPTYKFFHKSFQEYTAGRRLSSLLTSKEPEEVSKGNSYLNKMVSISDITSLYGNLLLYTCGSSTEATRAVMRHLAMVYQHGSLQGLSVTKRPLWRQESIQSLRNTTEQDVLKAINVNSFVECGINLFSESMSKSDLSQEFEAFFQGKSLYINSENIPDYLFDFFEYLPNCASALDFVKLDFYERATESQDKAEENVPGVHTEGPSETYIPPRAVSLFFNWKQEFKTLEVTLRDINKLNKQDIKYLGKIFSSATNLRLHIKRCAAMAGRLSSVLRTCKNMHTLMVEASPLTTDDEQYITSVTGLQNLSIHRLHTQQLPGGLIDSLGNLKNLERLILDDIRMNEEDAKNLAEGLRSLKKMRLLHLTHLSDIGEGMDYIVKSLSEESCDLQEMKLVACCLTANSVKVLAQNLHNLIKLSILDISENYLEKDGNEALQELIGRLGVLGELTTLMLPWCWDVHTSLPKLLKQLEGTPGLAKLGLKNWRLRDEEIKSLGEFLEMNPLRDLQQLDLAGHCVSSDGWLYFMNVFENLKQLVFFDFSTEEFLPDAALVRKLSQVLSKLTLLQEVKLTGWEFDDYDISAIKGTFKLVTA

[23] = target: T1, NACHT, LRR and PYD domains-containing protein 3; experiment: Inhibition of NLRP3 inflammasome in human U-937 cells assessed as downregulation of LPS/ATP-induced caspase-1 p20 expression at 3 to 30 uM primed with LPS for 4.5 hrs followed by compound addition for 2.5 hrs and stimulated with […] for 13 hrs by Western blotting analysis; format: cell-based; settings: dose 3-30 µM, time 15.5 hrs
Mus musculus [24] = experiment: Anti-inflammatory activity in DSS-induced ulcerative colitis C57BL/6 mouse model assessed as increase in colon length at 10 mg/kg,ip administrated for 9 days; format: functional, organism-based; settings: time 9.0 day
Mus musculus [25] = experiment: Anti-inflammatory activity in DSS-induced ulcerative colitis C57BL/6 mouse model assessed as decrease in IL-1beta expression in colon at 10 mg/kg,ip administrated for 9 days by immunohistochemistry analysis; format: functional, organism-based; settings: time 9.0 day
[26] = Acute toxicity in Kunming mouse model assessed as anorexia at 2000 mg/kg,IG administration for 7 days; format: organism-based; settings: in vivo, po, 168 h, time 7 day
Mus musculus [27] = experiment: Anti-inflammatory activity in DSS-induced ulcerative colitis C57BL/6 mouse model assessed as reduction in disease activity index (DAI) score at 10 mg/kg,ip administrated for 9 days; format: functional, organism-based; settings: time 9.0 day
[28] = Drug distribution in Sprague-Dawley rat heart at 1 mg/kg,iv measured for 0.5 to 2 hrs by HPLC-MS/MS analysis; format: ADME, organism-based; settings: in vivo, time 0.5-2 hrs
[29] = Drug distribution in Sprague-Dawley rat kidney at 1 mg/kg,iv measured for 0.5 to 2 hrs by HPLC-MS/MS analysis; format: ADME, organism-based; settings: in vivo, time 0.5-2 hrs
[30] = Drug distribution in Sprague-Dawley rat spleen at 1 mg/kg,iv measured for 0.5 to 2 hrs by HPLC-MS/MS analysis; format: ADME, organism-based; settings: in vivo, time 0.5-2 hrs
Mus musculus [31] = experiment: Anti-inflammatory activity in DSS-induced ulcerative colitis C57BL/6 mouse model assessed as decrease in caspase-1 p20 protein expression in colon at 10 mg/kg,ip administrated for 9 days by Western blotting analysis; format: functional, organism-based; settings: time 9.0 day
Mus musculus [32] = experiment: Anti-inflammatory activity in DSS-induced ulcerative colitis C57BL/6 mouse model assessed as decrease in NLRP3 protein expression in colon at 10 mg/kg,ip administrated for 9 days by Western blotting analysis; format: functional, organism-based; settings: time 9.0 day
Mus musculus [33] = experiment: Anti-inflammatory activity in DSS-induced ulcerative colitis C57BL/6 mouse model assessed as decrease in NLRP3 expression in colon at 10 mg/kg,ip administrated for 9 days by immunohistochemistry analysis; format: functional, organism-based; settings: time 9.0 day
[34] = Subacute toxicity in C57BL/6 mouse assessed as change in lung weight at 10 mg/kg,ip administrated for 14 days; format: organism-based; settings: in vivo, 336 h, time 14 day
[35] = Acute toxicity in Kunming mouse model assessed as change in body weight at 1000 mg/kg,IG administration for 7 days; format: organism-based; settings: in vivo, po, 168 h, time 7 day
[36] = Subacute toxicity in C57BL/6 mouse assessed as change in colon weight at 10 mg/kg,ip administrated for 14 days; format: organism-based; settings: in vivo, 336 h, time 14 day
[37] = Subacute toxicity in C57BL/6 mouse assessed as heart histological changes at 10 mg/kg,ip administrated for 14 days; format: organism-based; settings: in vivo, 336 h, time 14 day
[38] = Subacute toxicity in C57BL/6 mouse assessed as change in spleen weight at 100 mg/kg,ip administrated for 14 days; format: organism-based; settings: in vivo, 336 h, time 14 day

CCCNS(=O)(=O)c1ccc2c(c1)CC(N(Cc1cc(Cl)ccc1OCCOC)C(=O)c1cc3ccccc3o1)C2 (racemic)
Cp [1]: 2094.04 ng/g | Drug uptake [2]: Active | Activity [3]: Non-Toxic | Cmax [4]: 219 ng/mL | CC50 at 24 h [5]: > 30000 nM | clearance [6]: 78.4 mL/min/kg | Activity (Mus musculus [7]): Active | Stability [8]: Stable | inhibition (J774.A1 [9]): inactive | Activity [10]: Non-Toxic | Kd [11]: 103 nM | Activity (Mus musculus [12]): Active | Activity [13]: Non-Toxic | AUC(0-inf) [14]: 213 ng·h/mL | Activity [15]: Non-Toxic | Activity [16]: Toxic | Activity [17]: Non-Toxic | Activity (J774.A1 [18]): Active | Activity [19]: Non-Toxic | Drug uptake [20]: Active | half-life [21]: 1.5 h | inhibition [22]: inactive | inhibition [23]: Active | Activity (Mus musculus [24]): Active | Activity (Mus musculus [25]): Active | Activity [26]: Non-Toxic | Activity (Mus musculus [27]): Active | Drug uptake [28]: Active | Drug uptake [29]: Active | Drug uptake [30]: Active | Activity (Mus musculus [31]): Active | Activity (Mus musculus [32]): Active | Activity (Mus musculus [33]): Active | Activity [34]: Non-Toxic | Activity [35]: Non-Toxic | Activity [36]: Non-Toxic | Activity [37]: Non-Toxic | Activity [38]: Non-Toxic
